The values below come from US9226924B2, “Methods of treating or preventing neuropathic pain” (Toray Industries, Inc., priority 2010, dated 2016).

Data set [1] deals with mouse models of neuropathic pain (Seltzer's method, sciatic nerve ligation). The data set is described as follows: von Frey test in mouse Seltzer model of neuropathic pain. The following applies: oral. It counts as in vivo. The method, then: 7 to 8 male ICR mice of 5 weeks old were used as one experimental group for evaluation. Mouse models of neuropathic pain were prepared according to Seltzer's method (Seltzer et al., Pain, 1990, vol. 43, p. 205; Malmberg et al., Pain, 1998, vol. 76, p. 215). That is, the sciatic nerve at the femoral region of the right hindlimb of each mouse was exposed under anesthesia, and the sciatic nerve was triply ligated tightly with silk suture of 8-0 (NATSUME SEISAKUSHO) under microscope so that only half thickness of the nerve was trapped in the ligature.
Seven days after the above-described sciatic nerve ligation, using 0.5% methylcellulose as a vehicle, mice of each group received administration of vehicle, administration of a suspension of pregabalin (3 mg/kg) alone, administration of a suspension of Compound 3 (0.3 mg/kg) alone, or administration (combined administration) of a mixed suspension of pregabalin and Compound 3 (3 mg/kg and 0.3 mg/kg, respectively).
Evaluation of neuropathic pain (hereinafter “von Frey test”) was carried out as follows. Mouse models of neuropathic pain were conditioned for at least 1 hour in an acryl cage for measurement (NATSUME SEISAKUSHO) placed on a wire net. Thereafter, using a filament (North Coast Medical. Inc.) which exerted a pressure of 0.16 g, the mice were subjected to mechanical tactile stimulus by applying the filament to the plantar surface of both hindpaws 3 times, each for 3 seconds, with an interval of 3 seconds.
Seven days after sciatic nerve ligation, a von Frey test was carried out before administration of the test compound, 1 hour after administration, 2 hours after administration, and 3 hours after administration. Change in the total scores from before to after administration of the test compound (hereinafter “ΔvF test score”) was calculated by subtracting the total score obtained at each time point after administration of the test compound from the total score obtained before administration of the test compound, which was used as an indicator of analgesic effect.
That is, individual ΔvF test scores of the mice in the group treated with pregabalin alone and the mice in the group treated with Compound 3 alone were sorted in ascending order, respectively, and ΔvF test scores of the two groups at the same rank were added, thereby obtaining a theoretical total value.
The symbol # in the figures indicates a significant difference (###p<0.001) from the group treated with vehicle. […] The symbol * in the figures indicates a significant difference (*p<0.05, **p<0.01) from the theoretical total value.
In the same manner as in Example 1, effects of oral administration of 1, 3, 10 and 30 mg/kg pregabalin alone were evaluated 1 hour after administration in mouse models of neuropathic pain.
(§1) The symbol * in the figure indicates a significant difference (*p<0.025) from the group treated with vehicle.

A further data set relates to male ddY mice. Nature of the data set: mouse wheel running test (motor inhibitory effect). The method, then:
8 male ddY mice of 5 weeks old were used as one experimental group for evaluation. The test compound, grouping of mice, vehicle used and administration method were the same as in Example 1.
Mice were placed in a running wheel apparatus (NATSUME SEISAKUSHO) 0.5 hour after administration of the test compound, and the number of revolutions of the running wheel was counted for a period of 1 hour immediately thereafter to evaluate a motor inhibitory effect.
In the same manner as in Example 2, motor inhibitory effects of oral administration of 30 and 100 mg/kg pregabalin were evaluated.
as §1

Turning to `COc1ccc(-n2nc(C3(O)CCC(O)CC3)cc2-c2ccc(C)cc2)cc1` (stereo not drawn) [Compound 3, 1-(1-(4-methoxyphenyl)-5-(p-tolyl)-1H-pyrazol-3-yl)cyclohex-an-cis-1,4-diol], the “analgesic effect (ΔvF test score)” value in data set [1] (0.3 mg/kg Compound 3 alone, 1 hour, 2 hours and 3 hours after administration, male ICR mice) was “an analgesic effect was not observed”. Further, in the data set with male ddY mice (0.3 mg/kg Compound 3 alone, oral, 0.5 to 1.5 hours after administration), the “motor inhibitory effect (number of revolutions of running wheel)” value was “No statistically-significant motor inhibitory effect was found”.

In the case of `CC(C)C[C@H](CN)CC(=O)O` [Pregabalin, S-(+)-4-amino-3-(2-methylpropyl) butanoic acid], the “analgesic effect (ΔvF test score)” value in data set [1] (1 mg/kg pregabalin alone, 1 hour after administration (Comparative Example 1)) is reported as “No analgesic effect was observed”; in data set [1] (3 mg/kg pregabalin alone, 1 hour after administration (Comparative Example 1)) it was “No analgesic effect was observed”; in data set [1] (3 mg/kg pregabalin alone, 1 hour, 2 hours and 3 hours after administration, male ICR mice), “an analgesic effect was not observed”; in data set [1] (10 mg/kg pregabalin alone, 1 hour after administration (Comparative Example 1), *p<0.025 vs vehicle), “a statistically-significant analgesic effect was observed”; in data set [1] (30 mg/kg pregabalin alone, 1 hour after administration (Comparative Example 1), *p<0.025 vs vehicle), “a statistically-significant analgesic effect was observed”. Also, the “analgesic effect relative to combined administration of 3 mg/kg pregabalin and 0.3 mg/kg Compound 3” value in data set [1] (30 mg/kg pregabalin alone, 1 hour after administration) was “about the same level”. In addition, the “motor inhibitory effect (number of revolutions of running wheel)” value with male ddY mice (3 mg/kg pregabalin alone, oral, 0.5 to 1.5 hours after administration) was “No statistically-significant motor inhibitory effect was found”; in the data set on male ddY mice (30 mg/kg pregabalin alone, oral (Comparative Example 2), *p<0.025 vs vehicle), “statistically significantly reduced the number of revolutions”; with male ddY mice (100 mg/kg pregabalin alone, oral (Comparative Example 2), *p<0.025 vs vehicle) it was “statistically significantly reduced the number of revolutions”.
